In PMC11801715, “Activating PKC-ε induces HIV expression with improved tolerability” (PLOS Pathogens, 2025) one finds cell viability data, which are given here for one compound.

This data set deals with CD4+ T cells from ART-suppressed people with HIV. Kind of data set: Cell viability (Cell Titer Glo). The settings on record: 72 hours, doses that activated HIV RNA. The format is cell-based, human. The protocol:
Supplementary file ppat.1012874.s011.png: S8 Fig Effect of C-233 on cell viability. CD4^+ T cells from ART-suppressed people with HIV were treated with the indicated C-233 concentrations for 72 hours. Cell viability was assessed using Promega Cell Titer Glo according to manufacturer’s instructions. Bars indicate the means and lines indicate standard deviation from 4 donors, each tested with 8 replicates. (PNG)

On to `Cc1ccc(C#Cc2ccc(C(=O)OCC3(CO)Cc4c(-c5ccccc5)ccnc4O3)cc2)cc1` (stereo not shown) [C-233], for which the cell viability result is “without impairing viability”.
